Experimental data taken from a melting point compilation (Tetko et al.; mined from patent text by program, amines drawn as free bases though some values may be those of a salt).

melting point [°C] | Structure (SMILES)
86 to 88 | Cc1ccc(Oc2c(C)cc(N)c(C)c2Cl)c(C)c1
165 to 166 | CC1CC(=O)NN=C1c1ccc(NC(=O)OCc2cccc(Cl)c2)cc1 (configuration not stated)
113 to 114 | COC(=O)c1nc(C)c(F)c(N)c1Cl
162 to 164 | Cc1[nH]c2ccc(S(=O)(=O)c3ccc(C(F)(F)F)cc3)cc2c1CCNC(=O)OC(C)(C)C
47 to 48.5 | CCC[C@](CC=O)(CCc1ccccc1)OCOc1ccc(-c2ccccc2)cc1
186 to 188 | CC(=O)NC[C@H]1CN(c2ccc(N3CCC(n4cc(C(F)F)nn4)CC3)c(F)c2)C(=O)O1
131 to 132 | CCCc1nc2cc(C(=O)c3ccccc3)ccc2[nH]1
201 to 202 | COc1ccc(S(=O)(=O)Nc2cnccc2Nc2ccccc2)cc1
220 to 221 | CNc1nc(C)c(-c2cn3ccc(C)cc3n2)s1
112 to 113 | Ic1ccc(C2CCCCO2)cc1-c1cc(C2CCCCO2)ccc1I (configuration not stated)
130 | CC1=CC2=C(N3CN(n4cc(C)nc4-c4cc(Cl)ccc4Cl)C=C3N=N2)N(c2cc(Cl)ccc2Cl)C1
93 to 94 | CCOP(=O)(CNC(CCCc1ccccc1)c1cc(C(C)(C)C)c(O)c(C(C)(C)C)c1)OCC (configuration not stated)
305 to 308 | O=c1[nH]ncc2ccc(/C=C/c3ccc(O)cc3)cc12
48 to 50 | COc1ccccc1OCC(O)CCCl (configuration not stated)
142 to 150 | COC(=O)CCC(=O)c1ccc2c(c1)C(C)NC(=O)N2 (configuration not stated)
154 to 155 | C[C@@H]1CN(CC(=O)Nc2ccccc2C(F)(F)F)C[C@H](C)N1c1ncnc2sccc12
78 to 80 | C=COC(=O)n1c(SCc2ccc(C)cn2)nc2cscc21
188 to 189 | COc1ccc2c(c1)C1=C[C@@H](C(=O)NC(C)(C)C)CN(C)[C@@H]1CO2 (relative stereo)
118 to 120 | CC(=O)NCCC(C)c1ccc(-c2ccc(Cl)cc2)cc1 (configuration not stated)
45 to 55 | C[C@@H](O)c1nccc(N2CCC(=Cc3cccc(Cl)c3)CC2)n1
266 to 269 | C=C1SC(=S)N(c2ccc3cc(-c4ccc(OC)c(-c5ccccc5)c4)ccc3c2)C1=O
128 to 130 | Cc1ncsc1C(C)(O)c1ccccc1 (configuration not stated)
108 | c1ccc2c(c1)CCC(n1cncn1)C21OCCO1 (configuration not stated)
134 to 136 | CC(C)/C=C1\NC(=O)CC1=O

melting point [°C] | Structure (SMILES)
91 to 93 | COc1ccc(N(CCCC(=O)O)C(=O)CCN(C(=O)c2ccc(Cl)cc2)c2ccc(OC)cc2)cc1
83 | COc1cc(NC(C)=O)ccc1N1C(=O)C(C)(c2ccccc2Cl)c2cc(Cl)ccc21 (configuration not stated)
144 to 146 | CC(C)c1ccc(-n2nc(C(F)(F)F)cc2-c2ccc(S(C)(=O)=O)cc2)cc1
76 | CC(=O)OCCCCN(C)CCN(C)C(=O)[C@@H]1CCCN1S(=O)(=O)c1ccc(Cl)c(COc2cccc3c(-n4ccnc4)cc(C)nc23)c1Cl
235 to 237 | CC1(C)Oc2ccc(C#N)cc2C(NC(=O)Nc2ccc3c(c2)CCC3)C1O (configuration not stated)
143 to 146 | C[C@H](CSC(=O)c1ccc(Cl)c(S(N)(=O)=O)c1)C(=O)N1CCC[C@H]1C(=O)O
176 to 178 | COc1cn(-c2cccc(C(F)(F)F)c2)nc(C(=O)C=CN(C)C)c1=O
133 to 134 | CCOCC(=O)Nc1cccc(NC)c1C#N
193 to 194 | CC(=O)c1cc2c(Cl)cc(F)c(-n3c(=O)cc(C(F)(F)F)n(C)c3=O)c2o1
101 to 103 | Cc1cc(SCc2ccc(OCc3ccc(Cl)cc3Cl)cc2)ccc1OCC(=O)O
148 to 150 | Cc1c(NCCCCNCC(O)COc2ccccc2)n(C)c(=O)n(C)c1=O (configuration not stated)
177 to 179 | O=C(O)CCC1OC(=O)C(O)=C1c1ccccc1 (configuration not stated)
162 | Fc1cc(-c2cc(C(F)(F)F)n3ncc(-c4cccnc4)c3n2)ccc1C(F)(F)F
71 to 73 | COCc1sc(C(C)(O)c2ccsc2)nc1C (configuration not stated)
204 to 207 | CC(=O)N1CCN(Cc2ccc(CCn3cnc4cc(-c5ccc(Cl)cc5)sc4c3=O)cc2)C(=O)C1
188 to 189 | O=C(C=Cc1ccc2c(c1)OCO2)c1cccc(O)c1
147 to 149 | COC1C(=O)N=C(NC(=O)Nc2cccc(Cl)c2)N1C (configuration not stated)
103 to 105 | COc1cc2ccc(C(=O)C(C)C)cc2cc1OC
105 to 115 | CC(=O)N1CCc2c(S(=O)(=O)Cl)ccc(Cl)c2C1
178 to 180 | CCc1ccc(C=C2C(=O)c3cc(O)ccc3OC2c2ccc(CC)cc2)cc1 (configuration not stated)
122 to 125 | Cc1ncn(-c2ccc(N)cc2F)n1
128 to 131 | COCCOCc1c(CN(C)CC(O)c2cccc(N)c2)sc2c(=O)c(C(=O)NCc3ccc(Cl)cc3)cn(C)c12 (configuration not stated)
160 | O=NN(CCCl)C(=O)NC1(C(=O)Nc2nncs2)CCCC1
228 to 230 | CCOCc1nc2c(N)nc3cc(OCc4cccc(N)c4)ccc3c2n1CC(C)C

melting point [°C] | Structure (SMILES)
130 to 131 | CCOC(=O)C(=O)N(O)Cc1ccc2c(c1)Cc1ccccc1-2
121 to 122 | CN(C(=S)NN)c1ccccc1
209 to 210 | O=C(O)C1Cc2ccccc2N1C(=O)c1ccccc1 (configuration not stated)
106 to 107 | CCCCCCCc1ccc(C=CC(=O)c2ccc(OCC=C(C)C)cc2OCC(=O)O)cc1
135 to 140 | COc1cc2c(cc1OC)CN(CCc1ccc(NC(=O)c3cccc4c(=O)cc(-c5ccccc5)oc34)cc1)CC2
205 to 207 | CC1(C)CC(=O)c2c(nc(Cc3ccc(Cl)cc3)c3[nH]c4ccccc4c23)C1
254 to 258 | Cc1nc(N)nc(N)c1C12CC3CC(CC(C3)C1)C2
69 to 72 | CN(CC(=O)[C@H](Cc1ccccc1)NC(=O)N1CCCCC1)C(=O)N1CCC[C@H]1C(=O)O
150 to 152 | CC1C=C(c2nnn[nH]2)CN(CC(=O)O)C1 (configuration not stated)
242 to 243 | Cc1nc2c(O)c(CCC(=O)c3ccccc3)c(C(=O)N3CCC3)cc2n1C
203 to 205 | COc1ccc(NC(=O)c2c[nH]c3c2C(=O)CC(C)(C)C3)c(F)c1
239 | NCC1CCN(CC(=O)Nc2cccc3c2C(=O)c2c-3n[nH]c2-c2ccc(N3CCNCC3)cc2)CC1
179 to 182 | CC(C)(Oc1ccc(NC(=O)Oc2ccc(Cl)cc2)cc1)C(=O)O
144 to 146 | C#CCNC(=O)Oc1cc(-n2c(=O)cc(C(F)(F)F)n(C)c2=O)c(F)cc1Cl
175 to 176 | Nc1ncnc2c1c(-c1ccccc1Cl)cn2-c1ccccc1
169 to 170 | Clc1cc2nc(Br)c(Br)nc2cc1Cl
69 to 73 | Clc1ccc2ccc(COc3ccc(CN4CCc5cccc(CCc6nnn[nH]6)c54)cc3)nc2c1
269 | FC(F)(F)COc1ccc(-c2cc(C(F)(F)F)n3cnc(-c4ccncc4)c3n2)cc1C(F)(F)F
223 to 226 | CC(C)NC(=O)NC1CCCc2sccc21 (configuration not stated)
206 to 207 | CC(C)(C)c1cc(CCc2ccc(NC(=O)Nc3ccccc3)cc2)cc(C(C)(C)C)c1O
118 to 122 | COc1ccc(-c2nc(C(=O)Nc3c(C)cccc3C)c[nH]2)cc1OC1CCCC1
170 to 171 | Cc1[nH]nc(C(=O)NC2CCCC2)c1NC(=O)c1cnccn1
> 250 | Cn1nc(-c2c(NCc3ccccc3)nc(N)nc2-c2ccccc2)ccc1=O
175 to 178 | COc1ccc(NC(=O)c2ccc(-c3ccc(-c4noc(CO)n4)cc3C)cc2)cc1N1CCN(C)CC1

melting point [°C] | Structure (SMILES)
165 | Cc1cccc(N(CCC(=O)O)Cc2ccc3nc(N)n(Cc4nc(C)ccc4O)c3c2)c1
66 | COC(CN(c1nc2ccccc2o1)[C@H]1c2cc(C#N)ccc2OC(C)(C)[C@@H]1O)OC
185 | CC1(C)CCC(C)(C)c2cc(N)c(N)cc21
179 to 180 | CC(C)(C)OC(=O)Nc1cc(N2CCC3(CC2)OCCO3)c(C#Cc2ccccc2)cc1[N+](=O)[O-]
205 | COC(=O)C1=NNC(C)=C(C(=O)OC)C1c1ccccc1C(F)(F)F (configuration not stated)
89 to 92 | CC(C#CCn1ccnc1)N1CCN(C)C1=O (configuration not stated)
58 to 60 | CCOP(=O)(OCC)c1c(C)c2c(c(C)c1-c1c(OC)ccc3ccccc13)CN(S(=O)(=O)c1ccc(C)cc1)C2
73 to 74.5 | CCOC(=O)c1cc(OC)c(OCC)c(OCC)c1-c1c(C(=O)OCC)cc(OC)c2c1OCO2
250 to 252 | COc1ccc2c(c1)[nH]c1c(C)nc3c(c12)C(=O)CC(C)(C)C3
110 to 112 | CC(C)C1CC(=O)C(c2ccccn2)C(=O)C1 (configuration not stated)
72 to 76.5 | O=C1C(=O)N(CCCCl)c2ccccc21
133 to 134 | OCc1cncn1C1CCCCC1
162 | C[C@@H](O[Si](C)(C)C(C)(C)C)[C@H]1C(=O)N[C@@H]1[C@@H](C)C(=O)C(C)(C)O[Si](C)(C)C
77 to 79 | O=C(c1cccs1)C1CCN(CCc2ccccc2)CC1
86 to 88 | COC(=O)C1=CC[C@H]2[C@@](C=O)(CCC3C(C)(C)CCC[C@@]32C)C(=O)C1 (some centres not stated)
134 | CC(C)(C)OC(=O)N1CCn2c(C(=O)N[C@@H](Cc3ccccc3)[C@H](O)CNC3(c4cccc(C(F)(F)F)c4)CC3)cc(C(=O)O)c2C1
197 to 198 | O=C(O)c1ccccc1NC1CCOC1=O (configuration not stated)
277 to 278 | CCCn1c(=O)c2[nH]c(/C=C/c3cc(Br)c(OC)c(OC)c3)nc2n(CCC)c1=O
163 to 165 | O=C(CNC(=O)OCc1ccc([N+](=O)[O-])cc1)Nc1ccc(C(=O)OCCl)cc1
145 to 146 | CC(=O)c1ccc(-c2ccc(N(Cc3ccccc3)Cc3ccccc3)cc2)c(C)c1
162 to 167 | CC1(C)Oc2ccc(C#N)cc2[C@@H](NC(=O)Nc2ccc(-c3ncno3)cc2)[C@@H]1O
> 240 | Cc1c(N(C)C)n2c(cc1=O)CCCC2

Structure (SMILES) | melting point [°C]
CC(=O)c1c(S(=O)(=O)C(F)(F)F)c(C#N)nn1-c1c(Cl)cc(C(F)(F)F)cc1Cl | 161
O=C1NC2C(CC(O)C(O)C2O)c2cc3c(c(O)c21)OCO3 (configuration not stated) | 182
O=C(O)Cn1cnnn1 | 125 to 127
